# Experimental data from ChEMBL document CHEMBL3714758, “3H-imidazo[4,5-b]pyridin-5-ol derivatives useful in the treatment of GPR81 receptor disorders” (2013).
# Calls of active or inactive are those of the source. The calls are words filed in the database; no cut-off is given here.
# Assays:
# Mus musculus = assay: Reduction in circulating free fatty acids in food-deprived C57/B16 mouse at 100 mg/kg, ip measured after 30 mins by NEFA assay; type: functional, organism-based
# Rattus norvegicus = assay: Reduction in circulating free fatty acids in food-deprived Sprague-Dawley rat at 1 to 100 mg/kg, po measured after 10 to 240 mins post dose by NEFA assay; type: functional, organism-based
# Adipocyte = assay: Inhibition of lipolysis in Sprague-Dawley rat epididymal adipocytes pre-incubated for 10 mins before theophylline addition followed by further incubation for 3 hrs by microplate reader based assay; type: functional, cell-based
Structure (SMILES),inhibition (Mus musculus),inhibition (Rattus norvegicus),IC50 (Adipocyte)
Oc1ccc2ncn(-c3ccccc3C(F)(F)F)c2n1,Active,,
O=C(O)c1cccnc1,Active,,
Oc1ccc2ncn(-c3ccccc3Cl)c2n1,Active,Active,234 nM
